Laboratory results as given in publication PMC8179156, “Retrograde sulfur flow from glucosinolates to cysteine in Arabidopsis thaliana” (Proceedings of the National Academy of Sciences of the …, 2021).

Key:
Assay type in all cases: biochemical
AtTGG1-His6 = biological target: T1, AtTGG1-His6 (Arabidopsis thaliana, UniProt P37702); assay: D-glucose release, extract of expressing N. benthamiana leaves; conditions: crude extract; His6-GFP control at background
T1 construct: gene TGG1; His6 tag (printed AtTGG1-His6); transient expression in Nicotiana benthamiana leaves; crude protein extract

AtBGLU28-His6 = biological target: T2, AtBGLU28-His6 (Arabidopsis thaliana, UniProt Q4V3B3); assay: as above; conditions: crude extract; His6-GFP control at background
T2 construct: gene BGLU28; C-terminal His6 tag; transient expression in Nicotiana benthamiana leaves; crude protein extract
T2 sequence (Q4V3B3 22-582): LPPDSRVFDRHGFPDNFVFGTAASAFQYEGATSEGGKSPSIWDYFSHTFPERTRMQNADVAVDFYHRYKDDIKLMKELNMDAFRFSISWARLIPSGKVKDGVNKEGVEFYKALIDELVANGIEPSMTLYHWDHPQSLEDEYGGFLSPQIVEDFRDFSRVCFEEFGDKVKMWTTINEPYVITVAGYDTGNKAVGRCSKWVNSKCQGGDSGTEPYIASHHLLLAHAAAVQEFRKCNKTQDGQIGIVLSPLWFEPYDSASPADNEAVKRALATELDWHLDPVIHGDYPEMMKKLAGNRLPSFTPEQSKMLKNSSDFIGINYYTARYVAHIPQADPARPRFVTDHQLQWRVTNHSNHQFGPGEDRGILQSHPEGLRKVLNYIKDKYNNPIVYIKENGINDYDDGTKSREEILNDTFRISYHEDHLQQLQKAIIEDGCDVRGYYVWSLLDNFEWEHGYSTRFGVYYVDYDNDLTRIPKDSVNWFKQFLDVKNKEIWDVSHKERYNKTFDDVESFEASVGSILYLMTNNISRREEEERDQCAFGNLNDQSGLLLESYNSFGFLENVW

AtOXP1 [1] = biological target: T3, AtOXP1 (Arabidopsis thaliana, UniProt Q9FIZ7); assay: Glu production in crude seedling extract, WT versus oxp1-1; conditions: native crude extract; stereochemistry of 5OP not given
T3 construct: gene OXP1; native enzyme in crude protein extract of 14-d-old seedlings; assigned by comparison with oxp1-1 mutant
T3 sequence (Q9FIZ7 1-1266): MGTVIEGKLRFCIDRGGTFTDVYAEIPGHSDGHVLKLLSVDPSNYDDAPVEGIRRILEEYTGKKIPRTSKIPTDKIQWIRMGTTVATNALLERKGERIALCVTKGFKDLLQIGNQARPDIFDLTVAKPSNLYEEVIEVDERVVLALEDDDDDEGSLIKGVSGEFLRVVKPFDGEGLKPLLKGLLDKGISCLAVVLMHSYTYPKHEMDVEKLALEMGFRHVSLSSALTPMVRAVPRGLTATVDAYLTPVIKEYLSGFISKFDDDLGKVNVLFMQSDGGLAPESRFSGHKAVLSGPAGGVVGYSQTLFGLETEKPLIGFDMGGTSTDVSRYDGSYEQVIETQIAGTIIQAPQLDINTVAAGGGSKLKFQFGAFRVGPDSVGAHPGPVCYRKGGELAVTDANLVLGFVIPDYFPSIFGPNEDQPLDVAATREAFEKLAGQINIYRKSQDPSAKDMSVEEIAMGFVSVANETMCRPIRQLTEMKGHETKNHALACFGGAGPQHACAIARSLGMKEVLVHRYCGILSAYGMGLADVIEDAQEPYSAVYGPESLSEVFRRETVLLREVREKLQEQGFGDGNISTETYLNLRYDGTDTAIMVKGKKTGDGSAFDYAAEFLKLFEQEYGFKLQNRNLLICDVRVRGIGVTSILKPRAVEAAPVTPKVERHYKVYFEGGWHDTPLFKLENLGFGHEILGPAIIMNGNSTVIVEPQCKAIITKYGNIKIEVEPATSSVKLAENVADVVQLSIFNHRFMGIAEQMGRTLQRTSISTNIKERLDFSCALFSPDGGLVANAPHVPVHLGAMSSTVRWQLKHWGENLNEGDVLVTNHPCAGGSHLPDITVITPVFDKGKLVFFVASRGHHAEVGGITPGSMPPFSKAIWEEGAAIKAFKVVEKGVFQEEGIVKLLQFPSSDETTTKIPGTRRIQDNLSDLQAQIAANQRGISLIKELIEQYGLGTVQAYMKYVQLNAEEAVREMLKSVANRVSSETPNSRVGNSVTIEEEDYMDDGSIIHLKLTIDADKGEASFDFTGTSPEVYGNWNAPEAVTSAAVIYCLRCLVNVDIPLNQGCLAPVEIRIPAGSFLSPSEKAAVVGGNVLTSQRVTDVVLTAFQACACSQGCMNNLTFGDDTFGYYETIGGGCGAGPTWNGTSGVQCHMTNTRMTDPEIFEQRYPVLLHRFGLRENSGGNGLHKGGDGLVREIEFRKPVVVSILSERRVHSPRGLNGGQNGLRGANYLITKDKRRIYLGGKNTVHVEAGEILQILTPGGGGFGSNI

AtOXP1 [2] = biological target: T3, AtOXP1; assay: Cys production in crude seedling extract, WT versus oxp1-1; conditions: native crude extract; stereochemistry of pCys not given

T1 sequence (P37702 20-541): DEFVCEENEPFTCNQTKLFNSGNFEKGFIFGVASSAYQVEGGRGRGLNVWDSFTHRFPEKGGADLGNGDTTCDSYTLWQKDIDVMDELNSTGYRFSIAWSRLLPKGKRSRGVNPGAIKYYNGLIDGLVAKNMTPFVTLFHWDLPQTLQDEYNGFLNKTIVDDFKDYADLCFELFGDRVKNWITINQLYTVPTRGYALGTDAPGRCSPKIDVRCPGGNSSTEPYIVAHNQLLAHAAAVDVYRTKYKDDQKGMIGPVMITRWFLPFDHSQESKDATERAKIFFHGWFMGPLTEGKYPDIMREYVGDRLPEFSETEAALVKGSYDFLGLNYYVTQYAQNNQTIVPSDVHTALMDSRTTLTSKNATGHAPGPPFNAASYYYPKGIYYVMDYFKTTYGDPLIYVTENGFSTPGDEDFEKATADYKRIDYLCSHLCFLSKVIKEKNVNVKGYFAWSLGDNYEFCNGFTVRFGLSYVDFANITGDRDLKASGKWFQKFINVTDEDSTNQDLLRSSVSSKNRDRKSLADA

Compound: CSCCCC/C(=N/OS(=O)(=O)O)S[C@@H]1O[C@H](CO)[C@@H](O)[C@H](O)[C@H]1O [4MTB, 4-Methylthio-n-butyl glucosinolate]
- D-glucose release, extract of expressing N. benthamiana leaves (AtTGG1-His6): the extract containing AtTGG1-His6 hydrolyzed all the tested GLs at similar rates
- D-glucose release, extract of expressing N. benthamiana leaves (AtBGLU28-His6): exhibited higher rates of hydrolysis against 4MTB, benzyl glucosinolate, and PhE

Compound: O=C1CC[C@@H](C(=O)O)N1 [5OP, 5-oxoproline]
- Glu production in crude seedling extract, WT versus oxp1-1 (AtOXP1 [1]): lower rate of Cys production than the WT as observed for the Glu production from 5OP

Compound: O=S(=O)(O)O/N=C(/CCc1ccccc1)S[C@@H]1O[C@H](CO)[C@@H](O)[C@H](O)[C@H]1O [PhE, 2-Phenylethyl glucosinolate]
- D-glucose release, extract of expressing N. benthamiana leaves (AtTGG1-His6): the extract containing AtTGG1-His6 hydrolyzed all the tested GLs at similar rates
- D-glucose release, extract of expressing N. benthamiana leaves (AtBGLU28-His6): exhibited higher rates of hydrolysis against 4MTB, benzyl glucosinolate, and PhE

Compound: O=C1N[C@H](C(=O)O)CS1 [pCys, 1,3-thiazolidin-2-one-4-carboxylic acid]
- Cys production in crude seedling extract, WT versus oxp1-1 (AtOXP1 [2]): supporting that AtOXP1 can hydrolyze pCys, as reported for OPases in other organisms
